Reference: paper PMC5804415, “Comparison of ^68Ga-DOTA-Siglec-9 and ^18F-Fluorodeoxyribose-Siglec-9: Inflammation Imaging and Radiation Dosimetry” (Contrast Media & Molecular Imaging, 2017)
Where two headings read alike, the source gives them in different places. Positions of bridges follow the written chain, without caps; N, C: chain ends. Residues, ends and D or L forms follow the SMILES beside them. *: point of attachment. X1 = O=C(CON=C[C@H](O)[C@H](O)[C@H](O)CF)*; AEEA = NCCOCCOCC(=O)O

Experiments:
[1] = Ex vivo gamma counting biodistribution in atherosclerotic mice; details: mouse, total radioactivity, LDLR^−/−ApoB^100/100 mice (n = 19), 25 min after injection, mean ± SD
Description: (§1) Six-month-old atherosclerotic low-density lipoprotein receptor-deficient mice (weight, 27 ± 4.1 g; n = 19) expressing only apolipoprotein B100 (LDLR^−/−ApoB^100/100, strain #003000; Jackson Laboratory, Bar Harbor, ME, USA) were fed for 4 months with a Western-type diet. Two-month-old C57BL/6N mice (weight, 24 ± 2.2 g; n = 13) fed with a regular chow served as controls.
In PET studies, mice (19 atherosclerotic, 13 controls) were injected with 14 ± 4.4 MBq of ^18F-FDR-Siglec-9. Twenty-five minutes after ^18F-FDR-Siglec-9 injection, blood was drawn by cardiac puncture and the animals were killed. The thoracic aorta was excised and rinsed in saline to remove the blood. In addition, various other tissues were excised and patted dry. Samples of blood and urine were collected, and blood plasma was separated by centrifugation. […] The results were expressed as % ID/g and target-to-background ratio.

[2] = system: atherosclerotic plaques in LDLR^−/−ApoB^100/100 mouse aorta; test: Autoradiography of aortic cryosections of atherosclerotic mice; type: in vivo; details: LDLR^−/−ApoB^100/100 mice, n = 12, mean ± SD
Description: Autoradiography was used to study the distribution of radioactivity in the aorta in more detail, as described previously. After careful superimposition of the autoradiographs and H&E stained images, the count densities of 540 ROIs (185: plaques, 241: normal vessel walls, and 114: adventitia) were analyzed using Tina 2.1 software. The autoradiography results were calculated as the photostimulated luminescence per unit area (PSL/mm^2) normalized for injected radioactivity dose, and as ratios between the atherosclerotic plaque, normal vessel wall, and adventitia.

[3] = Ex vivo gamma counting biodistribution in rats with skin/muscle inflammation; details: Sprague-Dawley, rat, iv, total radioactivity; for tissue uptake at 1 h: Ex vivo biodistribution, rats with skin/muscle inflammation, i.v., 60 min after injection, gamma counting, mean ± SD
Description: (§2) Twenty-four hours before the PET studies, Sprague-Dawley rats (weight, 350 ± 22 g; n = 16) were subcutaneously injected with turpentine oil (Sigma-Aldrich) to induce focal acute, sterile inflammation [12]. Before the injection, rats were shaved on the both forelegs. Inflamed area on the left foreleg contained both skin and muscle. The intact, contralateral side (right foreleg) was used as a control.
(§3) After PET imaging, rats were sacrificed and various tissues were excised and weighed, and their radioactivity levels were measured with a gamma counter (1480 Wizard 3′′, PerkinElmer, Turku, Finland). The ex vivo biodistribution results were expressed as a percentage of the injected radioactivity dose per gram of tissue (% ID/g) and target-to-background ratio.

[4] = system: rats with skin/muscle inflammation (turpentine oil); test: as above; details: rats with skin/muscle inflammation, 60 min after injection, mean ± SD
Description: as §2, §3

[5] = system: rats with skin/muscle inflammation (turpentine oil); type: in vivo, rat
Description: Rats were divided into two groups with Group 1 being intravenously (i.v.) given ^68Ga-DOTA-Siglec-9 (16 ± 2.9 MBq, n = 8) and Group 2 ^18F-FDR-Siglec-9 (18 ± 5.1 MBq, n = 8). A 60 min dynamic PET acquisition was performed on a High Resolution Research Tomograph (HRRT; Siemens Medical Solutions, Knoxville, TN, USA). The PET data were reconstructed into 5 × 60 s and 11 × 300 s frames using an ordered-subsets expectation maximization 3D algorithm (OSEM3D). Quantitative PET image analysis was performed by defining regions of interest (ROIs) within the inflamed area (on the left foreleg), control area (on the right foreleg), kidneys, lungs, heart, liver, and urinary bladder using […] 2.8 software (Turku PET Centre). Results were expressed as standardized uptake values (SUV) and time-activity curves. SUV was calculated as a ratio of tissue radioactivity concentration (Bq/mL) and given radioactivity dose (Bq) divided by animal's body weight.

[6] = system: LDLR^−/−ApoB^100/100 atherosclerotic mice; test: PET/CT imaging of atherosclerotic mice; type: in vivo, mouse; details: atherosclerotic LDLR^−/−ApoB^100/100 mice, 10–20 min after injection, mean ± SD, n = 2
Description: as §1
A subset of mice (two atherosclerotic, two controls) were injected with 4.7 ± 1.1 MBq of ^18F-FDR-Siglec-9 and imaged with an Inveon Multimodality PET/CT (Siemens, Medical Solutions, Knoxville, TN, USA). Dynamic PET images were acquired for 60 min, followed by CT with a contrast agent (eXIATM160XL, Binitio Biomedical Inc., Ottawa, ON, Canada). The PET images were reconstructed with OSEM3D (frames 5 × 60 s, 3 × 300 s, 1 × 600 s, […]).
Quantitative PET image analysis was performed by defining ROIs in the heart left ventricle (blood pool) and aortic arch as identified on the basis of the CT angiography by using the Inveon Research Workplace software (Siemens Medical Solutions, Knoxville, TN, USA). Time frames 10–20 min after injection were used for PET quantification, as previously reported in the same mouse model using ^68Ga-DOTA-Siglec-9 [4]. The results within ROIs were expressed as SUV and target-to-background ratio (SUVmax,aortic arch/SUVmean,blood).

[7] = Sprague-Dawley rats, turpentine oil skin/muscle inflammation, i.v., dynamic PET 10–60 min, mean ± SD, SD

## CC(C)C[C@@H]1NC(=O)CNC(=O)[C@H](CCCNC(=N)N)NC(=O)[C@H](Cc2c[nH]c3ccccc23)NC(=O)[C@H](CO)NC(=O)[C@H](CC(C)C)NC(=O)[C@H](CO)NC(=O)[C@H](CC(C)C)NC(=O)[C@H](CCCNC(=N)N)NC(=O)[C@H](C)NC(=O)[C@@H](NC(=O)COCCOCCNC(=O)CON=C[C@H](O)[C@H](O)[C@H](O)CF)CSSC[C@@H](C(=O)N2CCC[C@H]2C(=O)N[C@@H](CO)C(=O)N[C@@H](CCCCN)C(=O)O)NC(=O)[C@H](CC(C)C)NC(=O)[C@H]([C@@H](C)O)NC1=O [^18F-FDR-Siglec-9] ({X1-AEEA}-CARLSLSWRGLTLCPSK-OH; disulfide 1-14; N-terminus and C-terminus assumed)
[1]; LDLR^−/−ApoB^100/100 (strain #003000), liver, read-out: Ex vivo biodistribution, Liver
  tissue uptake at 25 min: 3 ± 0.97 %ID/g
[1]; LDLR^−/−ApoB^100/100 (strain #003000), lungs, read-out: Ex vivo biodistribution, Lungs
  tissue uptake at 25 min: 2.4 ± 1.1 %ID/g
[1]; LDLR^−/−ApoB^100/100 (strain #003000), muscle, read-out: Ex vivo biodistribution, Muscle
  tissue uptake at 25 min: 0.62 ± 0.2 %ID/g
[1]; LDLR^−/−ApoB^100/100 (strain #003000), pancreas, read-out: Ex vivo biodistribution, Pancreas
  tissue uptake at 25 min: 0.82 ± 0.28 %ID/g
[1]; LDLR^−/−ApoB^100/100 (strain #003000), plasma, read-out: Ex vivo biodistribution, Plasma
  tissue uptake at 25 min: 5.7 ± 1.4 %ID/g
[1]; LDLR^−/−ApoB^100/100 (strain #003000), small intestine, read-out: Ex vivo biodistribution, Small intestine
  tissue uptake at 25 min: 1.6 ± 0.49 %ID/g
[1]; LDLR^−/−ApoB^100/100 (strain #003000), spleen, read-out: Ex vivo biodistribution, Spleen
  tissue uptake at 25 min: 1.1 ± 0.28 %ID/g
[1]; adipose tissue, WAT, 14 MBq, read-out: Ex vivo biodistribution, Adipose tissue, WAT
  tissue uptake at 25 min: 0.72 ± 0.66 %ID/g
[1]; aorta, 14 MBq, read-out: Ex vivo biodistribution, Aorta
  tissue uptake at 25 min: 0.93 ± 0.38 %ID/g
[1]; blood, 14 MBq, read-out: Ex vivo biodistribution, Blood
  tissue uptake at 25 min: 3.2 ± 0.82 %ID/g
[1]; brain, 14 MBq, read-out: Ex vivo biodistribution, Brain
  tissue uptake at 25 min: 0.15 ± 0.06 %ID/g
[1]; heart, 14 MBq, read-out: Ex vivo biodistribution, Heart
  tissue uptake at 25 min: 0.62 ± 0.28 %ID/g
[1]; kidney, 14 MBq, read-out: Ex vivo biodistribution, Kidney
  tissue uptake at 25 min: 44 ± 26 %ID/g
[1]; thymus, 14 MBq, read-out: Ex vivo biodistribution, Thymus
  tissue uptake at 25 min: 0.69 ± 0.19 %ID/g
[1]; urine, 14 MBq
  excreta dose per gram or mL at 25 min: 470 ± 370 %ID/g
[2]
  plaque-to-adventitia ratio: 2.2 ± 0.53
  plaque-to-healthy vessel wall ratio: 1.9 ± 0.23
[3]; adipose tissue, BAT, Adipose tissue, BAT
  tissue uptake at 1 h: 0.049 ± 0.019 %ID/g
[3]; adipose tissue, WAT, Adipose tissue, WAT
  tissue uptake at 1 h: 0.017 ± 0.0041 %ID/g
[3]; blood, Blood
  tissue uptake at 1 h: 0.12 ± 0.023 %ID/g
[3]; bone (femoral), Bone (femoral)
  tissue uptake at 1 h: 0.017 ± 0.01 %ID/g
[3]; bone marrow, Bone marrow
  tissue uptake at 1 h: 0.056 ± 0.011 %ID/g
[3]; brain, Brain
  tissue uptake at 1 h: 0.01 ± 0.003 %ID/g
[3]; control area (intact right foreleg), Control area
  tissue uptake at 1 h: 0.11 ± 0.056 %ID/g
[3]; heart, Heart
  tissue uptake at 1 h: 0.048 ± 0.01 %ID/g
[3]; inflamed area (left foreleg, skin and muscle), Inflamed area
  tissue uptake at 1 h: 0.19 ± 0.053 %ID/g
[3]; kidneys, Kidneys
  tissue uptake at 1 h: 14 ± 9.9 %ID/g
[3]; liver, Liver
  tissue uptake at 1 h: 0.68 ± 0.12 %ID/g
[3]; lungs, Lungs
  tissue uptake at 1 h: 0.11 ± 0.028 %ID/g
[3]; muscle, Muscle
  tissue uptake at 1 h: 0.021 ± 0.0067 %ID/g
[3]; pancreas, Pancreas
  tissue uptake at 1 h: 0.048 ± 0.011 %ID/g
[3]; plasma, Plasma
  tissue uptake at 1 h: 0.23 ± 0.087 %ID/g
[3]; small intestine, Small intestine
  tissue uptake at 1 h: 0.091 ± 0.029 %ID/g
[3]; spleen, Spleen
  tissue uptake at 1 h: 0.06 ± 0.012 %ID/g
[3]; urine, SD
  excreta dose per gram or mL at 1 h: 23 ± 14 %ID/g
[3]; male, testis, Testis
  tissue uptake at 1 h: 0.046 ± 0.022 %ID/g
[4]
  inflamed-to-control area ratio (ex vivo gamma counting): 2.0 ± 0.70
  inflammation-to-blood ratio (ex vivo gamma counting): 1.3 ± 0.16
[5]; Sprague-Dawley rats, turpentine oil skin/muscle inflammation, i.v., dynamic PET 10–60 min, mean ± SD, n = 5 (68Ga) or 8 (18F), SD
  SUVmean,10–60 min in the inflamed area: 0.77 ± 0.22
[5]; [7]
  SUVmax,10–60 min in the inflamed area: 1.1 ± 0.097
  inflammation-to-blood ratio 10–60 min (PET): 1.7 ± 0.51
[5]; rat, in vivo, iv
  time of peak uptake in the inflamed area after the i.v. bolus injection: about 10 min
[6]
  target-to-background ratio (SUVmax,aortic arch/SUVmean,blood): 1.6 ± 0.078
